A short description of series [1]: Apparent permeability of compound across basolateral to apical side in human Caco-2 cells. Type of series: ADME, cell-based. (Passage across Caco-2 layers is used to estimate intestinal permeability.)
The nature of series [2]: Apparent permeability of compound across apical to basolateral side in human Caco-2 cells. Type of series: ADME, cell-based.
Series [3] is described as follows: Apparent permeability across apical to basolateral side in human Caco-2 cells assessed as drug recovery. Type of series: ADME, cell-based. The note with it: read-out: Drug recovery.
The next series addresses P-gp (ABCB1) (Homo sapiens, UniProt P08183). The experiment in a line: Inhibition of P-gp in human Caco-2 cells at 1 uM in presence of paclitaxel relative to control. Type of series: cell-based. Particulars: Caco-2, probe paclitaxel.
Series [4] is described as follows: Inhibition of CYP3A4 in monkey liver using luciferin-IPA as substrate microsome preincubated with compound for 10 mins followed by NADPH addition and measured after 5 mins. Type of series: ADME, microsomes, Macaca mulatta.
Series [5] in a line: Metabolic stability in human liver microsome assessed as half life. Particulars: liver microsomes. It is filed as ADME.
Series [6] can be described thus: Metabolic stability in monkey liver microsome assessed as half life. It is filed as ADME, Macaca mulatta. The note with it: rhesus monkey, liver microsomes. A general note: Liver microsomes are a subcellular fraction often used to study metabolism.
Series [7] is described as follows: Metabolic stability in mouse liver microsome assessed as intrinsic clearance. It is filed as ADME. The note with it: microsomes.
A short description of series [8]: Metabolic stability in monkey liver microsome assessed as intrinsic clearance. It is filed as ADME, Macaca mulatta. Particulars: rhesus monkey, microsomes.
The target in series [9] is T1, Broad substrate specificity ATP-binding cassette transporter ABCG2 (Homo sapiens, UniProt Q9UNQ0).
T1 sequence (Q9UNQ0 whole entry): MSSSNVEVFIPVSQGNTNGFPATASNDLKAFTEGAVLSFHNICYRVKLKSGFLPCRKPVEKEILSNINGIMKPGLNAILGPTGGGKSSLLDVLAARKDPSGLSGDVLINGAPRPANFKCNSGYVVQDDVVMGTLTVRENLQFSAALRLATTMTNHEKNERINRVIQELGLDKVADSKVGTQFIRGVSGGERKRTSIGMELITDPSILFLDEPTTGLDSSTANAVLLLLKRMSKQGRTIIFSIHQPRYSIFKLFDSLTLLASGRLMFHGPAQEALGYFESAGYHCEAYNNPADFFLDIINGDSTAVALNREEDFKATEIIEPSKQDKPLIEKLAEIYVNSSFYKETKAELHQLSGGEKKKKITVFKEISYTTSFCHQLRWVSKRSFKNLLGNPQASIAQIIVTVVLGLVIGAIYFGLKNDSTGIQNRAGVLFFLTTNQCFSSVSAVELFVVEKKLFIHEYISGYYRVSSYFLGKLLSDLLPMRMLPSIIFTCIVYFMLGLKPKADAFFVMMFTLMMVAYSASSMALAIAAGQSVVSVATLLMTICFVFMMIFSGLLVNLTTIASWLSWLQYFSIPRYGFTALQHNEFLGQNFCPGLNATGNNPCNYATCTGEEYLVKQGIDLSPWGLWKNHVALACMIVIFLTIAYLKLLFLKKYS
In words: Inhibition of BCRP (unknown origin) ATPase activity.

For series [10], the target named is ATP-binding cassette sub-family C member 2 (Homo sapiens, UniProt Q92887). The experiment in a line: Inhibition of MRP2 (unknown origin) ATPase activity.
Sequence of ATP-binding cassette sub-family C member 2 (Q92887 whole entry): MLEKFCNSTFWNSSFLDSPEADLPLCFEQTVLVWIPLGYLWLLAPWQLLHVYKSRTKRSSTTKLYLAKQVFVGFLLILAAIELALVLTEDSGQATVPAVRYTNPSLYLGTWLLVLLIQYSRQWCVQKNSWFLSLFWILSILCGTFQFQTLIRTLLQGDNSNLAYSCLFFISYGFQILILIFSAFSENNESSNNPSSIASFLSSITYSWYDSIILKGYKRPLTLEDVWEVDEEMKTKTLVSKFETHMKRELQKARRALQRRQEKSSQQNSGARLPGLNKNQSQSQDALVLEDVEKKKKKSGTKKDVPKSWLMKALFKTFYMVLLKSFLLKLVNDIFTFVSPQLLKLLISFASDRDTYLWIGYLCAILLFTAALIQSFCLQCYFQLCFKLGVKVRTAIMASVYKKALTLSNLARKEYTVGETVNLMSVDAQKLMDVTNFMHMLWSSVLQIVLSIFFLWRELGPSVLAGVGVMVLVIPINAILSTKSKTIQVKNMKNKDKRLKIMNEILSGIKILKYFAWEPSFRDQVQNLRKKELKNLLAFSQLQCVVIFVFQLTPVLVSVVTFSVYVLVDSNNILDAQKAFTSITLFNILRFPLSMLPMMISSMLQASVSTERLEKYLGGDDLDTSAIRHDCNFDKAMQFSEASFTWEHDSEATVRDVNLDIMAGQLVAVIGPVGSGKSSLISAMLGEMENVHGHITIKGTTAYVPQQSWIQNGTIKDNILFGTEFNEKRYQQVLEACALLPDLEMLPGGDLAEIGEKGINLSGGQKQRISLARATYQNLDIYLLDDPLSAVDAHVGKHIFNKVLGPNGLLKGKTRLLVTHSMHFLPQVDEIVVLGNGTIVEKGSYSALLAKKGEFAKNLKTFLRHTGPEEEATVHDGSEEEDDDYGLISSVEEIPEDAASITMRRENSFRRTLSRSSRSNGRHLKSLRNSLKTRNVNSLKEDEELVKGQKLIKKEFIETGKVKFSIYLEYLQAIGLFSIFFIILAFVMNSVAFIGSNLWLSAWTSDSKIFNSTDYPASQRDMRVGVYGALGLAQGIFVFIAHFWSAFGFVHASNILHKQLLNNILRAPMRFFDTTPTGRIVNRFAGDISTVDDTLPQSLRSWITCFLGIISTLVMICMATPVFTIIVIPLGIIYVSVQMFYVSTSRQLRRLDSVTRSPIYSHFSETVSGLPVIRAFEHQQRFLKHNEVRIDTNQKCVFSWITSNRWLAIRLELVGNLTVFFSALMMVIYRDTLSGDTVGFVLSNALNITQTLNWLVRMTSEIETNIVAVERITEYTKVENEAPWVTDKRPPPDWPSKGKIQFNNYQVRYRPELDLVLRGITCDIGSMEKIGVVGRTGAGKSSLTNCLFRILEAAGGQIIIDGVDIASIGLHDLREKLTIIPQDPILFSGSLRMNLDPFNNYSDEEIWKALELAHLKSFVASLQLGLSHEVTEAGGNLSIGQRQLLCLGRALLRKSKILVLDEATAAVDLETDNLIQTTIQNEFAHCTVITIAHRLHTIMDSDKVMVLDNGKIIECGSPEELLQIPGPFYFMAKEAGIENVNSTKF

Results on one compound are retold here after ChEMBL document CHEMBL5523718, “Design, synthesis, molecular modeling, in vitro and in vivo biological evaluation of potent anthranilamide derivatives as dual P-glycoprotein and CYP3A4 inhibitors” (Eur J Med Chem, 2024).

By Papp B→A is commonly meant how fast a substance crosses the layer from the basolateral side. One may read the Papp A→B as the apparent permeability from the apical to the basolateral side of a cell layer. What is called inhibition is how much of the control response was suppressed. One may read the pIC50 as the negative decadic logarithm of the IC50, by convention in mol/L. As usually defined, the half-life is the time needed for the level to fall by half in the phase considered.

pIC50: −log10 of the molar value. Where only a bound is given, the exact number is not on record here.

Sequence of P-gp (ABCB1) (P08183 whole entry): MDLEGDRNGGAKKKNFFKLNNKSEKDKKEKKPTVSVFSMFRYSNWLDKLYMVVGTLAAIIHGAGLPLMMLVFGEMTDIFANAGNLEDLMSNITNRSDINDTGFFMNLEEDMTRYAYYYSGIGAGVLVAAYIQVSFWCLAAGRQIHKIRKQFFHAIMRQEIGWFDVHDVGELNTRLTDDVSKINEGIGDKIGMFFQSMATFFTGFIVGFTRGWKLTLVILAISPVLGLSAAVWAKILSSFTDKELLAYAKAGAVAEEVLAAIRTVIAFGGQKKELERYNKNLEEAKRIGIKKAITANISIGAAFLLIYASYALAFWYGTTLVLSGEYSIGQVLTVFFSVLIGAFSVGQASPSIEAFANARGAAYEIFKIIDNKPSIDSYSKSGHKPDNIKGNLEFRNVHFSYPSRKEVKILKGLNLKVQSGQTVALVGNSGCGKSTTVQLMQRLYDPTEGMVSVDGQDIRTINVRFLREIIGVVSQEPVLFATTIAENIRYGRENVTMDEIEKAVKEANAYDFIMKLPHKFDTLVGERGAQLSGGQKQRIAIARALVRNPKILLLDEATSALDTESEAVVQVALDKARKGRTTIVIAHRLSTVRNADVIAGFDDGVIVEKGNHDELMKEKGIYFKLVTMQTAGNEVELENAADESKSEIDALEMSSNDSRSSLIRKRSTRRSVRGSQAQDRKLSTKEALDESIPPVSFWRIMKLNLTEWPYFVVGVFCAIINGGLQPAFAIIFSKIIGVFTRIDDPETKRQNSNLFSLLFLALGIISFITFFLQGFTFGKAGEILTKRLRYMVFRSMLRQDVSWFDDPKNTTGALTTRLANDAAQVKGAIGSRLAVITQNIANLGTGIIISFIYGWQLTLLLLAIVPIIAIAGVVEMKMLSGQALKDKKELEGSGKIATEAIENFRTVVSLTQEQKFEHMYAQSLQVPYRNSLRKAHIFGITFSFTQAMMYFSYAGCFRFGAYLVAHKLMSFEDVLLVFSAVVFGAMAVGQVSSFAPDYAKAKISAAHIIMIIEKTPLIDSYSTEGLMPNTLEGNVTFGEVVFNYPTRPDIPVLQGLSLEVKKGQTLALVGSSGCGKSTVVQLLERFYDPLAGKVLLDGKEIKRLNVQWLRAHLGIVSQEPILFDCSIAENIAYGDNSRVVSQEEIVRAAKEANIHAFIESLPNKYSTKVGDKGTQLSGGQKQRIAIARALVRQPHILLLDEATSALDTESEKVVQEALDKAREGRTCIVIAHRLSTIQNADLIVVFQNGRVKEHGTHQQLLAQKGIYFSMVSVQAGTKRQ

Take `COc1cc(NC(=O)c2cc(=O)c3ccccc3o2)c(C(=O)Nc2ccc(C3CCN(Cc4cccc(-n5ccnc5)c4)CC3)cc2)cc1OC`: in series [1], the basolateral-to-apical permeability (Papp B→A) is < 0.08 ×10⁻⁶ cm/s. Also, the Papp A→B in series [2] was < 0.06 ×10⁻⁶ cm/s. Moreover, in series [3], the recovery is 82%. For the same compound, the inhibition at 1 µM on P-gp (ABCB1) was 97%. The negative-log IC50 (pIC50) is 6.85 in series [4], < 5.90 in [9] and < 5.00 in [10]. The half-life was 4.4 min in series [5] and 4.9 min in series [6]. For the same compound, the CLH was 0.038 mL/min/mg in series [7] and 0.28 mL/min/mg in series [8].
